Columns and labels:
PI3K (p110β/p85α) (h) = PI3K (p110β/p85α) (h) (Homo sapiens (Human), UniProt P42338); assay: PI3K (p110β/p85α) (h) non-radioactive HTRF kinase assay; type: biochemical
Description: (§1) PI3K (p110β/p85α) (h) is incubated in assay buffer containing 10 μM phosphatidylinositol-4,5-bisphosphate and MgATP (concentration as required). The reaction is initiated by the addition of the MgATP mix. After incubation for 30 minutes at room temperature, the reaction is stopped by the addition of stop solution containing EDTA and biotinylated phosphatidylinositol-3,4,5-trisphosphate. Finally, detection buffer is added, which contains europium-labelled anti-GST monoclonal antibody, GST-tagged GRP1 PH domain and streptavidin-allophycocyanin. The plate is then read in timeresolved fluorescence mode and the homogenous time-resolved fluorescence (HTRF) signal is determined according to the formula HTRF=10000×(Em665 nm/Em620 nm).
(§2) The kinase assays described herein were performed at Millipore UK Ltd, Dundee Technology Park, Dundee DD2 1SW, UK.

[1] = Compound stability in rat liver microsomes; type: in vitro ADME; details: pH 7.4; for CLint scaled at 5 μM: liver microsomes, in vivo CLint extrapolated from rat liver microsome incubation; for half-life at 5 μM: rat liver microsomes 0.5 mg protein/mL, compound 5 μM, NADPH, 37° C., read-out: Rat T1/2
Description: (§3) Human or rat liver microsomes incubations were conducted in duplicate in polypropylene tubes. The typical incubation mixtures consisted of human or rat liver microsomes (0.5 mg protein/mL), compounds of interest (5 μM) and NADPH (1.0 mM) in a total volume of 200 μL potassium phosphate buffer (PBS, 100 mM, pH 7.4). Compounds were dissolved in DMSO and diluted with PBS such that the final concentration of DMSO was 0.05%. The enzymatic reactions were commenced with the addition of protein after a 3-min preincubation and incubated in a water bath open to the air at 37° C. Reactions were terminated at various time points (0, 5, 10, 15, 30, 60 min) by adding equal volume of ice-cold acetonitrile. The samples were stored at −80° C. until LC/MS/MS assays.
(§4) The concentrations of compounds in the incubation mixtures of human or rat liver microsomes were determined by a LC/MS/MS method. The ranges of the linearity in the concentration range were determined for each tested compounds.
(§5) A parallel incubation was performed using denatured microsomes as the negative control, and reactions were terminated at various time points (0, 15, 60 min) after incubation at 37° C.
(§6) Dextromethorphan (70 μM) was selected as the positive control, and reactions were terminated at various time points (0, 5, 10, 15, 30, 60 min) after incubation at 37° C. Both positive and negative control samples were included in each assay to ensure the integrity of the microsomal incubation system.
(§7) The concentrations of compounds in human or rat liver microsome incubations were plotted as a percentage of the relevant zero time point control for each reaction.

PI3K (p110δ/p85α) (h) = PI3K (p110δ/p85α) (h) (Homo sapiens (Human), UniProt O00329); assay: PI3K (p110δ/p85α) (h) non-radioactive HTRF kinase assay; type: biochemical
Description: as §1, with “(p110δ/p85α)” for “(p110β/p85α)”, “phosphatidylinositol-4, 5-bisphosphate” for “phosphatidylinositol-4,5-bisphosphate”
as §2

PI3K (p110α/p85α) (h) = PI3K (p110α/p85α) (h) (Homo sapiens (Human), UniProt P42336); assay: PI3K (p110α/p85α) (h) non-radioactive HTRF kinase assay; type: biochemical
Description: as §1, with “(p110α/p85α)” for “(p110β/p85α)”, “phosphatidylinositol 4,5-bisphosphate” for “phosphatidylinositol-4,5-bisphosphate”, “ATP solution.” for “MgATP mix.”, “streptavidin allophycocyanin.” for “streptavidin-allophycocyanin.”
as §2

PI3K (p120γ) (h) = PI3K (p120γ) (h) (Homo sapiens (Human), UniProt P48736); assay: PI3K (p120γ) (h) non-radioactive HTRF kinase assay; type: biochemical
Description: as §1, with “(p120γ)” for “(p110β/p85α)”, “phosphatidylinositol-4, 5-bisphosphate” for “phosphatidylinositol-4,5-bisphosphate”
as §2

[2] = Compound stability in human liver microsomes; type: in vitro ADME; details: pH 7.4; for CLint scaled at 5 μM: liver microsomes, in vivo CLint extrapolated from human liver microsome incubation; for half-life at 5 μM: human liver microsomes 0.5 mg protein/mL, compound 5 μM, NADPH, 37° C., read-out: Human T1/2
Description: as §3, §4, §5, §6, §7

[3] = tested on: indolent B cell malignancies; details: Phase I, subset of patients with indolent B cell malignancies; cited from earlier work
PI3K-δ (RAJI) = assay: p-AKT HTRF assay, PI3K-δ in RAJI cells stimulated with anti-IgM; type: cell-based; details: anti-human IgM stimulation
Description: (§8) Cells were incubated at 37° C. in a 5% CO2 atmosphere overnight. […] Medium was then aspirated and 50 μL/well of lysis buffer was added. Plates were shaked for 45 minutes at room temperature and then 16 ul/well of lysate was transferred to 384-well plate. 4 ul/well of premixed antibody was added to the wells. The plate was centrifuged at 1000 rpm at RT for 1 minute and then incubated for 4 hours at 22° C., and Phospho-AKT (ser473) Kit was used for detection.

PI3K-α (SKOV3) = assay: p-AKT HTRF assay, PI3K-α in SKOV3 cells; type: cell-based; details: Homo sapiens, SK-OV-3
Description: as §8

hERG channels = hERG channels (Homo sapiens (Human), UniProt Q12809); assay: hERG assay, automated QPatch procedure; type: cell-based
Text: Only stable cells with recording parameters above threshold were allowed to enter the drug application procedure.

PI3K-β (786-O) = assay: p-AKT HTRF assay, PI3K-β in 786-O cells; type: cell-based; details: Homo sapiens, 786-0
Description: as §8

PI3K-γ (RAW264.7) = assay: p-AKT HTRF assay, PI3K-γ in RAW 264.7 cells stimulated with C5a; type: cell-based, murine; details: Mus musculus; RAW264.7 cells, C5a stimulation
Description: as §8

PI3K (p110δ/p85α) (h), sequence (O00329 whole entry): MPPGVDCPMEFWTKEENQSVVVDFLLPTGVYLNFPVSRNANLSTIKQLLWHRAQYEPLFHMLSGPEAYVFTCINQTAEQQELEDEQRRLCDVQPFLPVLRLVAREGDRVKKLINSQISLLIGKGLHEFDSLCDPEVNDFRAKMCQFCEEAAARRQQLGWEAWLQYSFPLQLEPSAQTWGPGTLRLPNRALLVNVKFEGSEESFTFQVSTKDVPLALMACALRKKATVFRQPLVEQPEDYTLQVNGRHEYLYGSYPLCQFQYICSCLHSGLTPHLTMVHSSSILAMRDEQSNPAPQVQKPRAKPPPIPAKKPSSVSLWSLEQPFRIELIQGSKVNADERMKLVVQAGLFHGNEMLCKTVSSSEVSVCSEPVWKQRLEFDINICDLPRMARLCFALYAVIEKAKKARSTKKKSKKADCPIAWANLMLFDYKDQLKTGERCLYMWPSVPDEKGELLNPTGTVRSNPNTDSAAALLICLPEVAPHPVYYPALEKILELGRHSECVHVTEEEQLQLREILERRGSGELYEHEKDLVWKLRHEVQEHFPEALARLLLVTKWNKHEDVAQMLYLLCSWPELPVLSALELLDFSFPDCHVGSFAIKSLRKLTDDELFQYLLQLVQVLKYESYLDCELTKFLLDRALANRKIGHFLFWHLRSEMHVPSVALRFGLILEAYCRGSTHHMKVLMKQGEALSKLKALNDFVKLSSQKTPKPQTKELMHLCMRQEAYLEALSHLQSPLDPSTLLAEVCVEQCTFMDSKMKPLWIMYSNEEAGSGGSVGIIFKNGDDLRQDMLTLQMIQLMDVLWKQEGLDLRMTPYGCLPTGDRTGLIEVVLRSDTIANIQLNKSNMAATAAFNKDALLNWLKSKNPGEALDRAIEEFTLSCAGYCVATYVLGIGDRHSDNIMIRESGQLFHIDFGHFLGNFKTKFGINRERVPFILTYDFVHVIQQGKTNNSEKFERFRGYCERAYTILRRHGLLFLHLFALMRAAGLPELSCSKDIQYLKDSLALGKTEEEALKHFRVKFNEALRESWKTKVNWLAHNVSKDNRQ
PI3K (p110δ/p85α) (h), sequence (P27986 whole entry partner): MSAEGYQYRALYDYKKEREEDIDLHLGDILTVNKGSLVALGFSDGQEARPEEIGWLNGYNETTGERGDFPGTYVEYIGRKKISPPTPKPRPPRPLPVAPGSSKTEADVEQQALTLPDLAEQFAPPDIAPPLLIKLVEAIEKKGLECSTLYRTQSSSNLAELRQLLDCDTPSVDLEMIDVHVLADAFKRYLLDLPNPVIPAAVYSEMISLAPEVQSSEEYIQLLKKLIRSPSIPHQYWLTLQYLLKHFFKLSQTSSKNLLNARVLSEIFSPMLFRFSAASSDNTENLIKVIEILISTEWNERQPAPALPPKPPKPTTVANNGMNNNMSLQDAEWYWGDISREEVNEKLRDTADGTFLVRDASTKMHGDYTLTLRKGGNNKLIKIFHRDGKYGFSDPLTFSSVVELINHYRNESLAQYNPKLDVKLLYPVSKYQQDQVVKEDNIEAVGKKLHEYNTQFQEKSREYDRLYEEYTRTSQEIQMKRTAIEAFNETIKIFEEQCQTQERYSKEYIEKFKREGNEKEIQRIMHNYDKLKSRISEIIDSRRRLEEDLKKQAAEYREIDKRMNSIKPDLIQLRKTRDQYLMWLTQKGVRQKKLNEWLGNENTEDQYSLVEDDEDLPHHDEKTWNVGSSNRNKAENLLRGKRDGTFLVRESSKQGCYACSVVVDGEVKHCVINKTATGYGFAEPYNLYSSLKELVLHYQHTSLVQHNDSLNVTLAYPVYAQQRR
PI3K (p110α/p85α) (h), sequence (P42336 whole entry): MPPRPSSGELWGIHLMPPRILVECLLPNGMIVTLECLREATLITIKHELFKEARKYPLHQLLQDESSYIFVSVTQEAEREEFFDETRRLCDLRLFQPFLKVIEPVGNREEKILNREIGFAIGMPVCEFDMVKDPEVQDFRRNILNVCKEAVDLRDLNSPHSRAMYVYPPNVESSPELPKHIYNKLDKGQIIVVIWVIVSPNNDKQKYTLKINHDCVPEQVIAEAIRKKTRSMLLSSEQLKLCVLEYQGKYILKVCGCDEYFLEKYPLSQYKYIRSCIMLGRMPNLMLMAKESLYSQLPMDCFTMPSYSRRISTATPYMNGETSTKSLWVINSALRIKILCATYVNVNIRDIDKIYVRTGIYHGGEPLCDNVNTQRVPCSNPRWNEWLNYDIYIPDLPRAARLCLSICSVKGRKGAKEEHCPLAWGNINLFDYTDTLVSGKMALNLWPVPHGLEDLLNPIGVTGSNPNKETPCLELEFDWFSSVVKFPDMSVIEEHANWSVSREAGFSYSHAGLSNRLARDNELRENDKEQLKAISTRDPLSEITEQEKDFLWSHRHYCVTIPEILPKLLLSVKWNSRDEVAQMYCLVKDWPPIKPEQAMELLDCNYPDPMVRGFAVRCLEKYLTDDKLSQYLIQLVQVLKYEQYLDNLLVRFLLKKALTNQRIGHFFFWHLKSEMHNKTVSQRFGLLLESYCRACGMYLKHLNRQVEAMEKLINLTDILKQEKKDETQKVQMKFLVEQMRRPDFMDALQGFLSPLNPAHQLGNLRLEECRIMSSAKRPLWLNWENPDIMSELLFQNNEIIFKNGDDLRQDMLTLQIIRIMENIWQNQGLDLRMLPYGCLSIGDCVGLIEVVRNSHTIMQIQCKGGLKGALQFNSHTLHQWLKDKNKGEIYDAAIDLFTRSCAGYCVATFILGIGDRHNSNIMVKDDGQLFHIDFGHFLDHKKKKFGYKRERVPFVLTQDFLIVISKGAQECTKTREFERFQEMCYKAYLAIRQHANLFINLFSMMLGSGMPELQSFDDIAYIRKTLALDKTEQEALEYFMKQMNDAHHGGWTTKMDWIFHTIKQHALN
PI3K (p110α/p85α) (h), sequence (P27986 whole entry partner): as the sequence (P27986 whole entry partner) above
PI3K (p120γ) (h), sequence (P48736 whole entry): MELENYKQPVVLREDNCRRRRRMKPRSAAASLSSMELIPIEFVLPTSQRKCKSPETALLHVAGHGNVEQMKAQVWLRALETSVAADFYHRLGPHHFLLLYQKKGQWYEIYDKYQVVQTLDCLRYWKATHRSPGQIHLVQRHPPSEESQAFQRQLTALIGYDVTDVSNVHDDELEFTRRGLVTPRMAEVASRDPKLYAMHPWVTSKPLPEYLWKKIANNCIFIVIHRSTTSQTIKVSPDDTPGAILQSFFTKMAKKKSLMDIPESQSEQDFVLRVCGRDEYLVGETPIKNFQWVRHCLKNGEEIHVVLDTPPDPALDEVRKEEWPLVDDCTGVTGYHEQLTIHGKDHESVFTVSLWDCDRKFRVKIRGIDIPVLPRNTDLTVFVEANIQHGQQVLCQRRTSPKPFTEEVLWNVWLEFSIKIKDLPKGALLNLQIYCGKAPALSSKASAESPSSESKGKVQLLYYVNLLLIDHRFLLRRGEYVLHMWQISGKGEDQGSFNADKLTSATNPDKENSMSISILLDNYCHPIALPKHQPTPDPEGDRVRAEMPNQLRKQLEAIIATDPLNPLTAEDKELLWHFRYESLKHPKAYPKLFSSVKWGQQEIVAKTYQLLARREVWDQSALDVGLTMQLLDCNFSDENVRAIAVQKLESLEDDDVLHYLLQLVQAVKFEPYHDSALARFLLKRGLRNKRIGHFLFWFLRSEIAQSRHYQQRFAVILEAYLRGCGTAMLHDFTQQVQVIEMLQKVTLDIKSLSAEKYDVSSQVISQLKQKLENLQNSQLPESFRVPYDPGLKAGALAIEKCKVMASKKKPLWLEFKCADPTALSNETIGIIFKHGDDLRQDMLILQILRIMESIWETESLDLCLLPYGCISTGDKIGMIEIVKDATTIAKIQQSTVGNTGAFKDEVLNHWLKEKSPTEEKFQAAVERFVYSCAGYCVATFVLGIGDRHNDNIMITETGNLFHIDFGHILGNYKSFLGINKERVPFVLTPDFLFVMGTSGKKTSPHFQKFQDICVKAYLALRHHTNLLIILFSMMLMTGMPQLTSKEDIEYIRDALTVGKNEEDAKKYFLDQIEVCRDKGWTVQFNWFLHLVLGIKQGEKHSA
PI3K (p110β/p85α) (h), sequence (P42338 whole entry, the tested form may be a part): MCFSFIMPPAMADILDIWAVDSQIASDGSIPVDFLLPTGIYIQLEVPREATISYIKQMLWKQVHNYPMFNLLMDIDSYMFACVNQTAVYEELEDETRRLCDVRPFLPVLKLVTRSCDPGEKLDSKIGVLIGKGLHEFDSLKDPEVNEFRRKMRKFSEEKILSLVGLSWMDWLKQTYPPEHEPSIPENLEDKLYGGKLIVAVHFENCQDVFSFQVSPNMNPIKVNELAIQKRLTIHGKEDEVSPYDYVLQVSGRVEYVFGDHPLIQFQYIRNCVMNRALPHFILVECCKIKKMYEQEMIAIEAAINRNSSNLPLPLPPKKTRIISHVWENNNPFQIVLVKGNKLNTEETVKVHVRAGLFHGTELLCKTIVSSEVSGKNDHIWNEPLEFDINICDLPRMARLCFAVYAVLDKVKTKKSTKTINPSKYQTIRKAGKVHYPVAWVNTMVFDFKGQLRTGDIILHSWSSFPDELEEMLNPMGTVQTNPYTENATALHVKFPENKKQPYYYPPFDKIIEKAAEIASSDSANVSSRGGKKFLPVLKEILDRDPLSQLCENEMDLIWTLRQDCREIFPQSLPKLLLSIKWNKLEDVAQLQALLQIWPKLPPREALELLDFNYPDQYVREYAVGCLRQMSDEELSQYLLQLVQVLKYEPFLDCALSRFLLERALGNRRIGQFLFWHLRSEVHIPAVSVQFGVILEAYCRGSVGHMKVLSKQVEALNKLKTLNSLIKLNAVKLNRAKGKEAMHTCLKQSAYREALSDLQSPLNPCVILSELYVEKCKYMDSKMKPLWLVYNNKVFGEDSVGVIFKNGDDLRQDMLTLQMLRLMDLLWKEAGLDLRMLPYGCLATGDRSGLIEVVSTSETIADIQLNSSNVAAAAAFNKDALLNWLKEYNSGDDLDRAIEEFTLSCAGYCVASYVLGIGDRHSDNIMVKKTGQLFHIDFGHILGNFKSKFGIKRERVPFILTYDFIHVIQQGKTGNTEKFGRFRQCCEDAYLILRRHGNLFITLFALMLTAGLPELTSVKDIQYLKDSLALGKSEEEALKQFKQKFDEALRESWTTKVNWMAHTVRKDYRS
PI3K (p110β/p85α) (h), sequence (P27986 whole entry partner, the tested form may be a part): as the sequence (P27986 whole entry partner) above

Row | SMILES | IC50 (PI3K (p110β/p85α) (h)) [nM] | CLint scaled at 5 μM [1] [mL/min/kg] | half-life at 5 μM [1] [min] | IC50 (PI3K (p110δ/p85α) (h)) [nM] | IC50 (PI3K (p110α/p85α) (h)) [nM] | IC50 (PI3K (p120γ) (h)) [nM] | CLint scaled at 5 μM [2] [mL/min/kg] | half-life at 5 μM [2] [min] | clinical response [3] | IC50 (PI3K-δ (RAJI)) [nM] | IC50 (PI3K-α (SKOV3)) [nM] | IC50 (hERG channels) [nM] | IC50 (PI3K-β (786-O)) [nM] | IC50 (PI3K-γ (RAW264.7)) [nM]
1 | CC[C@H](Nc1ncnc(N)c1-c1nc(C)no1)c1nc2cccc(C#CCO)c2c(=O)n1C1CC1 [Example 29, (S)-2-(1-((6-amino-5-(3-methyl-1,2,4-oxadiazol-5-yl)pyrimidin-4-yl)amino)propyl)-3-cyclopropyl-5-(3-hydroxyprop-1-yn-1-yl)quinazolin-4(3H)-one] | 119 | 88.8 | 28 | 24 | > 3000 | 77 | 72.2 | 24.1 | – | – | – | – | – | –
2 | CC[C@H](Nc1ncnc2[nH]cnc12)c1nc2cccc(F)c2c(=O)n1-c1ccccc1 [CAL-101, idelalisib] | – | – | – | – | – | – | – | – | dramatic and durable responses | – | – | – | – | –
3 | Cc1noc(-c2c(N)ncnc2N[C@@H](C)c2nc3cccc(C#CC(C)O)c3c(=O)n2-c2ccccc2)n1 (stereo partly drawn) [Example 5, 2-((S)-1-((6-amino-5-(3-meth-1,2,4-oxadiazol-5-1)pyrimidin-4-1)amino)ethyl)-5-(3-hydroxybut-1-yn-1-yl)-3-phenylquinazolin-4(3H)-one] | 1870 | 28 | 88.7 | 17 | 2400 | 512 | 20.8 | 83.7 | – | – | – | – | – | –
4 | Cc1noc(-c2c(N)ncnc2N[C@@H](C)c2cc3cccc(C#CCO)c3c(=O)n2-c2ccccc2)n1 [Example 40, (S)-3-(1-((6-amino-5-(3-methyl-1,2,4-oxadiazol-5-yl)pyrimidin-4-yl)amino)ethyl)-8-(3-hydroxyprop-1-yn-1-yl)-2-phenylisoquinolin-1 (2H)-one] | 154 | – | – | 5 | 704 | 44 | – | – | – | – | – | – | – | –
5 | CC[C@H](Nc1ncnc(N)c1-c1nc(C)no1)c1nc2cccc(C#CCO)c2c(=O)n1-c1ccccc1 [Example 36, (S)-2-(1-((6-amino-5-(3-methyl-1,2,4-oxadiazol-5-yl)pyrimidin-4-yl)amino)propyl)-5-(3-hydroxyprop-1-yn-1-yl)-3-phenylquinazolin-4(3H)-one] | 395 | 138 | 18 | 10 | 2660 | 30 | 98.3 | 17.7 | – | – | – | – | – | –
6 | CC#Cc1cccc2cc([C@H](C)Nc3ncnc(N)c3-c3nc(C)no3)n(-c3ccccc3)c(=O)c12 [Example 16, (S)-3-(1-((6-amino-5-(3-methyl-1,2,4-oxadiazol-5-yl)pyrimidin-4-yl)amino)ethyl)-2-phenyl-8-(prop-1-yn-1-yl)isoquinolin-1(2H)-one] | 61 | – | – | 10 | 121 | 26 | – | – | – | 0.52 | 305 | > 30000 | 34.4 | 22.6
7 | CC#Cc1cccc2nc([C@H](CC)Nc3ncnc(N)c3-c3nc(C)no3)n(-c3ccccc3)c(=O)c12 [Example 14, (S)-2-(1-((6-amino-5-(3-methyl-1,2,4-oxadiazol-5-yl)pyrimidin-4-yl)amino)propyl)-3-phenyl-5-(prop-1-yn-1-yl)quinazolin-4(3H)-one] | 582 | 213 | 11.7 | 8 | 1890 | 15 | 150 | 11.6 | – | – | – | – | – | –
8 | CC#Cc1cccc2nc([C@H](C)Nc3ncnc(N)c3-c3nnc(C)o3)n(-c3ccccc3)c(=O)c12 [Example 10, (S)-2-(1-((6-amino-5-(5-methyl-1,3,4-oxadiazol-2-yl)pyrimidin-4-yl)amino)ethyl)-3-phenyl-5-(prop-1-yn-1-yl)quinazolin-4(3H)-one] | 548 | – | – | 6 | 2800 | 340 | – | – | – | – | – | – | – | –
9 | Cc1noc(-c2c(N)ncnc2N[C@@H](C)c2nc3ccc(F)c(C#CCO)c3c(=O)n2-c2ccccc2)n1 [Example 42, (S)-2-(1-((6-amino-5-(3-methyl-1,2,4-oxadiazol-5-yl)pyrimidin-4-yl)amino)ethyl)-6-fluoro-5-(3-hydroxyprop-1-yn-1-yl)-3-phenylquinazolin-4(3H)-one] | 1600 | – | – | 17 | > 3000 | 349 | – | – | – | – | – | – | – | –
10 | CC#Cc1cccc2nc([C@H](C)Nc3ncnc(N)c3-c3nc(C)no3)n(-c3ccccc3)c(=O)c12 [Example 9, (S)-2-(1-((6-amino-5-(3-methyl-1,2,4-oxadiazol-5-yl)pyrimidin-4-yl)amino)ethyl)-3-phenyl-5-(prop-1-yn-1-yl)quinazolin-4(3H)-one] | 151 | 85.2 | 29.2 | 2 | 460 | 47 | 80.5 | 21.6 | – | – | – | – | – | –
11 | CC[C@H](Nc1ncnc(N)c1-c1nnc(C)o1)c1nc2cccc(C#CCO)c2c(=O)n1-c1ccccc1 [Example 37, (S)-2-(1-((6-amino-5-(5-methyl-1,3,4-oxadiazol-2-yl)pyrimidin-4-yl)amino)propyl)-5-(3-hydroxyprop-1-yn-1-yl)-3-phenylquinazolin-4(3H)-one] | > 3000 | 113 | 22 | 45 | > 3000 | 440 | 39.8 | 43.7 | – | – | – | – | – | –
